Data on two compounds can be found in publication PMC9228215, “Anion-Sensing Properties of Cyclopentaphenylalanine” (Molecules, 2022).

Where a SMILES comes first, the peptide text is derived from it.

Data set [1] can be described thus: Isothermal titration calorimetry (microcalorimetry) of L with chloride. Format: binding. The settings on record: acetonitrile, 25.0 °C, measurements repeated three times. Here is the method: Microcalorimetric measurements were conducted with an isothermal titration calorimeter Microcal VP-ITC at 25.0 °C. Thermograms were processed using the Microcal OriginPro 7.0 program (OriginLab Corporation, Northampton, MA, USA).
In the calorimetric studies of chloride complexation by L, the enthalpy changes were recorded upon stepwise additions of salt solution into the solution of cyclopeptide ligand (V0 = 1.4 cm^3). The heats measured in the titration experiments were corrected for the heats of titrant dilution obtained by blank experiments. The dependence of successive enthalpy changes on the titrant volume was processed by non-linear least-squares fitting procedure using OriginPro 7.5 program (OriginLab Corporation, Northampton, MA, USA). Measurements were repeated three times.

The nature of data set [2]: Comparison of stability constants in methanol and acetonitrile, bromide. Format: binding. The conditions noted are these: 25 °C. Here is the method:
(§1) Fluorimetric titrations were conducted on Varian Cary Eclipse Fluorimeter, UV-Vis spectra were recorded by Agilent Cary 5000 spectrophotometer, and CD spectra were recorded on JASCO J815 spectrophotometer. Fluorimeter and UV-Vis spectrophotometer were connected to thermostating device, whereas CD titrations were performed at room temperature. The excitation wavelength used in all fluorimetric titrations was 260 nm, spectra were recorded at 2 nm interval with 0.4 s integration time, 10 nm excitation, and emission slits were used. In titrations with iodide, the obtained spectra were corrected by the anion concentration dependent solvent emission spectra. […] CD spectra were recorded in the 200–300 nm wavelength range with a 0.2 nm data pitch and scanning speed of 200 nm/min; 2 scans were accumulated for each spectrum. […]
^1H NMR titrations were carried out at 25 °C by means of a Bruker Avance III HD 400 MHz with a solvent signal used as a standard. […] Spectra were recorded at 16 pulses. ^1H NMR spectra were processed and visualized by means of MestReNova 6.1 software (Mestrelab Research, Santiago de Compostela, Spain). Stability constants of the corresponding complexes were determined from the obtained ^1H NMR spectra by using multivariate analysis implemented in HypNMR 4.0 software (Protonic Software, Leeds, UK) included in the Hyperquad program package.

Data set [3] is described as follows: Comparison of stability constants in methanol and acetonitrile, chloride. Format: binding. The settings on record: 25 °C. Here is the method:
as §1
^1H NMR titrations were carried out at 25 °C by means of a Bruker Avance III HD 400 MHz with a solvent signal used as a standard. […] Spectra were recorded at 16 pulses. ^1H NMR spectra were processed and visualized by means of MestReNova 6.1 software (Mestrelab Research, Santiago de Compostela, Spain). Stability constants of the corresponding complexes were determined from the obtained ^1H NMR spectra by using multivariate analysis implemented in HypNMR 4.0 software (Protonic Software, Leeds, UK) included in the Hyperquad program package. […]

Data set [4] in a line: Solubility determination of L (saturated solutions, spectrophotometric). Format: physicochemical. Here is the method: Saturated solutions of L in acetonitrile and methanol were prepared by adding an excess amount of the solid substance to the solvent. The obtained mixtures were left in a thermostat at 25 °C for several days in order to equilibrate. The concentrations of saturated solutions were determined at 25.0 °C spectrophotometrically by means of a Varian Cary 5000 spectrophotometer equipped with a thermostatting device. Calibration curves were obtained by measuring the absorbances of solutions of known concentrations.

For data set [5] the following is noted: cited from earlier work. From the text:
The reaction enthalpy (−15 kJ mol^−1) and entropy (65 J mol^−1 K^−1) for L-Cl complex formation are close to the corresponding values for complexation of chloride with cyclopentaleucine (∆rH = −11 kJ mol^−1, ∆rS = 76 J mol^−1 K^−1). Therefore, the inclusion of fluorescent groups to the cyclopeptide sidechain improved the anion detection capability ...

In the case of `O=C1N[C@@H](Cc2ccccc2)C(=O)N[C@@H](Cc2ccccc2)C(=O)N[C@@H](Cc2ccccc2)C(=O)N[C@@H](Cc2ccccc2)C(=O)N[C@H]1Cc1ccccc1` [L, cyclopentaphenylalanine] (cyclo(FFFFF)), in data set [1], the “Reaction enthalpy for L-Cl complex formation” value is -3.59 kcal/mol and the “Reaction entropy for L-Cl complex formation” value came to 65 J mol^−1 K^−1. The “Decrease in stability constant in methanol compared to acetonitrile, in the log K value” in data set [2] was roughly 3.5. Further, the “Decrease in stability constant in methanol compared to acetonitrile, in the log K value” in data set [3] was “about 4.5”. Further, the “Transfer Gibbs energy of L (MeCN→MeOH)” value in data set [4] (determined from ligand solubilities in acetonitrile and methanol, 25 °C) was “negligible”. The “Solubility of free L in acetonitrile” value in data set [4] (thermodynamic, excess solid in acetonitrile, equilibrated several days at 25 °C, saturated solution measured spectrophotometrically (UV) at 25.0 °C with calibration curve) is recorded as “(2.72 ± 0.02) × 10^−3 mol dm^−3”. Also, the “Solubility of free L in methanol” value in data set [4] (thermodynamic, excess solid in methanol, equilibrated several days at 25 °C, saturated solution measured spectrophotometrically (UV) at 25.0 °C with calibration curve) is “(2.81 ± 0.03) × 10^−3 mol dm^−3”.

Consider cyclopentaleucine, for which, in data set [5], the “∆rH for complexation of chloride with cyclopentaleucine” value is -2.63 kcal/mol and the “∆rS for complexation of chloride with cyclopentaleucine” value is recorded as 76 J mol^−1 K^−1.
